Patent US20210236668A1, “COMPOSITIONS FOR RADIOTHERAPY AND USES THEREOF” (The Trustees of Columbia University in the City of New York, priority 2018, published 2021)
Several values for one entry are separate records, joined by “and”; a condition that tells them apart may be missing. Equal values may be shown once. Where a name gives a salt, the structure may show the parent alone. Read-outs that look alike come from different tables or passages of the source.

Tests used:
NCI-28H cells = conditions: for % survival from untreated cells: cells + drug / Average reading: cells + drug / Average absorbance reading: cells + drug / % survival cells after exposure to drug for 72 hrs (cells + drug only) / Average absorbance readings: cells + drug: NCI-28H
NCI-2052H cells = assay: Cytotoxicity assay (MTS, CellTiter 96 AQueous One, 490 nm), 72 hrs; format: cell-based; conditions: for Average reading: cells + drug: absorbance 490 nm
Description: Read absorbance (MTS assay) and calculate cells survival rate. Compare survival rate
1,500,000 cells/440,000=3.4 ml of cells/media mix need to take from flask and transfer to 26.6 ml media. In 50 ml Falcon tube, combine 26.6 ml fresh medium and 3.4 ml cells. Gently mix.
1. Centrifuge tubes at 3200 rpm for 3 min. Take out supernatant.
6. Check the plates and start incubation for 72 hrs at 37° C./5% CO2.
5. Incubate plate 1 hr at 37° C., 5% CO2.
Compare survival rate of cells.
1. […] Protocol how to do that see in previous cytotoxicity experiment.
1. Incubate plate for 72 hrs at 37° C., 5% CO2.
6. Incubate plate 1 hr at 37° C., 5% CO2.

[1] = Talc bound to hot/cold Avidin, 48 hrs wash in PBS containing 10% FBS, absorbance 450 nm; format: physicochemical; conditions: 48 hrs in PBS containing 10% FBS
Description: Purpose: To check how strong the conjugate of hot/cold Avidin to Talc is. […] Absorbance will be checked twice—once before washing with PBS containing 10% FBS and after 48 hours, washing will be done.
14. […] Two identical microplates need to be set up, labeling them as: plate #1 and plate #2. Design of the plate:
3. Wash both plates 3× with 300 μL PBS.
5. […] Mix constantly, cover plate with Aluminum foil.
6. Add 100 μL of TMB to samples in plate #1.
9. Read absorbance at 450 nm using the plate reader.
3. Collect 100 μL supernatant from samples except native controls and load on same plate.
4. Wash plate except supernatant samples 3× with 300 μL PBS.
6. Add 100 μL of TMB to all samples in plate #2.

## N.N.O=C([O-])C1(C(=O)[O-])CCC1.[Pt+2] [Carboplatin]
NCI-28H cells; carboplatin 0.006 μM
  % survival from untreated cells: cells + drug: 90.84% and 94.28%
NCI-28H cells; carboplatin 0.006 μM, absorbance 490 nm
  Average reading: cells + drug: 1.504
NCI-28H cells; carboplatin 0.8 μM
  % survival from untreated cells: cells + drug: 85.98% and 87.53%
NCI-28H cells; carboplatin 0.8 μM, absorbance 490 nm
  Average reading: cells + drug: 1.4238
NCI-28H cells; carboplatin 4 μM
  % survival from untreated cells: cells + drug: 96.93% and 93.62%
NCI-28H cells; carboplatin 4 μM, absorbance 490 nm
  Average reading: cells + drug: 1.605
NCI-28H cells; carboplatin 20 μM
  % survival from untreated cells: cells + drug: 104.81% and 99.20%
NCI-28H cells; carboplatin 20 μM, absorbance 490 nm
  Average reading: cells + drug: 1.7355
NCI-28H cells; carboplatin 100 μM
  % survival from untreated cells: cells + drug: 83.82% and 79.53%
NCI-28H cells; carboplatin 100 μM, absorbance 490 nm
  Average reading: cells + drug: 1.388
NCI-28H cells; carboplatin 500 μM
  % survival from untreated cells: cells + drug: 37.38% and 35.14%
NCI-28H cells; carboplatin 500 μM, absorbance 490 nm
  Average reading: cells + drug: 0.6189

## N.N.[Cl][Pt][Cl] [Cisplatin]
NCI-28H cells
  cytotoxicity to NCI-28H cells, comparison: no noticeable difference in toxicity
NCI-28H cells; 72 hrs, Cisplatin 20 μM
  Average reading: cells + cisplatin: 0.48
NCI-28H cells; 72 hrs, Cisplatin 100 μM
  Average reading: cells + cisplatin: 0.59

## COc1cccc2c1C(=O)c1c(O)c3c(c(O)c1C2=O)C[C@@](O)(C(=O)CO)C[C@@H]3O[C@H]1C[C@H](N)[C@H](O)[C@H](C)O1 [DOX, Doxorubicin Hydrochloride]
NCI-28H cells; 72 hrs, DOX 0.000064 μM
  AVERAGE: cells + DOX (absorbance): 1.18
NCI-28H cells; 72 hrs, DOX 0.2 μM
  AVERAGE: cells + DOX (absorbance): 0.89
NCI-28H cells; 72 hrs, DOX 1 μM
  AVERAGE: cells + DOX (absorbance): 0.67
NCI-28H cells; 72 hrs, DOX 5 μM
  AVERAGE: cells + DOX (absorbance): 0.63
NCI-28H cells; 72 hrs, Dox 200 nM
  % survival from untreated by DOX cells: 65.0%
NCI-28H cells; cells + 125 nM DOX
  % survival NCI-28H cells after different treatment (compare to untreated cells): 70%
NCI-2052H cells; doxorubicin 400 nM
  % survival from untreated cells: 57.76%
NCI-2052H cells; doxorubicin 2000 nM
  % survival from untreated cells: 25.59%
NCI-2052H cells; doxorubicin 10,000 nM
  % survival from untreated cells: 18.91%

## CC(=O)O[C@H]1C(=O)[C@@]2(C)[C@H]([C@H](OC(=O)c3ccccc3)[C@]3(O)C[C@H](OC(=O)[C@H](O)[C@@H](NC(=O)c4ccccc4)c4ccccc4)C(C)=C1C3(C)C)[C@]1(OC(C)=O)CO[C@@H]1C[C@@H]2O [Paclitaxel]
NCI-28H cells; Paclitaxel 80 nM, absorbance 490 nm
  Average readings: cells + drug: 1.10
NCI-2052H cells; paclitaxel 0.256 nM
  Average reading: cells + drug: 1.4273
NCI-2052H cells; paclitaxel 6.4 nM
  Average reading: cells + drug: 1.54
NCI-2052H cells; paclitaxel 32 nM
  Average reading: cells + drug: 0.5818
NCI-2052H cells; paclitaxel 160 nM
  Average reading: cells + drug: 0.4361
NCI-2052H cells; paclitaxel 800 nM
  Average reading: cells + drug: 0.4326
NCI-2052H cells; paclitaxel 4000 nM
  Average reading: cells + drug: 0.553
NCI-2052H cells; paclitaxel 20,000 nM
  Average reading: cells + drug: 0.1647

## Nc1ccn([C@@H]2O[C@H](CO)[C@@H](O)C2(F)F)c(=O)n1 [gemcitabine, Gemcitabine]
NCI-28H cells
  cytotoxicity to NCI-28H cells, comparison: clear cytotoxic effect
NCI-28H cells; gemcitabine 0.0026 μM
  % survival from untreated cells: cells + drug: 114.61%
  Average absorbance reading: cells + drug: 2.034
NCI-28H cells; gemcitabine 0.013 μM
  % survival from untreated cells: cells + drug: 107.85%
  Average absorbance reading: cells + drug: 1.914
NCI-28H cells; gemcitabine 0.064 μM
  % survival from untreated cells: cells + drug: 80.60%
  Average absorbance reading: cells + drug: 1.43
NCI-28H cells; gemcitabine 8 μM
  % survival from untreated cells: cells + drug: 56.58%
  Average absorbance reading: cells + drug: 1.004
NCI-28H cells; gemcitabine 40 μM
  % survival from untreated cells: cells + drug: 60.09%
  Average absorbance reading: cells + drug: 1.0663
NCI-28H cells; gemcitabine 200 μM
  % survival from untreated cells: cells + drug: 52.70%
  Average absorbance reading: cells + drug: 0.9352

## CO[C@@]12[C@H](COC(N)=O)C3=C(C(=O)C(C)=C(N)C3=O)N1C[C@@H]1N[C@@H]12 [mitomycin, Mitomycin]
NCI-28H cells; mitomycin 0.0026 μM, 72 hrs
  % survival cells after exposure to drug for 72 hrs (cells + drug only): 106.12%
NCI-28H cells; mitomycin 0.0026 μM
  Average absorbance readings: cells + drug: 2.032
NCI-28H cells; mitomycin 0.013 μM, 72 hrs
  % survival cells after exposure to drug for 72 hrs (cells + drug only): 102.65%
NCI-28H cells; mitomycin 0.013 μM
  Average absorbance readings: cells + drug: 1.965
NCI-28H cells; mitomycin 0.064 μM, 72 hrs
  % survival cells after exposure to drug for 72 hrs (cells + drug only): 98.03%
NCI-28H cells; mitomycin 0.064 μM
  Average absorbance readings: cells + drug: 1.8766
NCI-28H cells; mitomycin 8 μM, 72 hrs
  % survival cells after exposure to drug for 72 hrs (cells + drug only): 18.03%
NCI-28H cells; mitomycin 8 μM
  Average absorbance readings: cells + drug: 0.3451
NCI-28H cells; mitomycin 40 μM, 72 hrs
  % survival cells after exposure to drug for 72 hrs (cells + drug only): 27.16%
NCI-28H cells; mitomycin 40 μM
  Average absorbance readings: cells + drug: 0.52
NCI-28H cells; mitomycin 200 μM, 72 hrs
  % survival cells after exposure to drug for 72 hrs (cells + drug only): 12.87%
NCI-28H cells; mitomycin 200 μM
  Average absorbance readings: cells + drug: 0.2464
NCI-2052H cells; mitomycin 0.013 μM
  Average reading: cells + drug: 1.284
NCI-2052H cells; mitomycin 0.064 μM
  Average reading: cells + drug: 1.199
NCI-2052H cells; mitomycin 8 μM
  Average reading: cells + drug: 0.4142
NCI-2052H cells; mitomycin 40 μM
  Average reading: cells + drug: 0.2305
NCI-2052H cells; mitomycin 200 μM
  Average reading: cells + drug: 0.2098
NCI-2052H cells; mitomycin .0026 μM
  Average reading: cells + drug: 1.424

## Avidin: Avidin from egg white (Sigma A9275), 66 kDa biotin-binding protein; unlabeled = cold Avidin
[1]
  binding of Avidin to talc at 48 hours: unchanged
